Measured values as given in US20100304975A1, “PROCESS FOR […] RESISTANCE TO AN ABIOTIC STRESS” (ELICITYL, priority 2007, published 2010).

What was measured:
Type in all cases: in vivo
Pinot noir = assay: Frost-resistance of vine plants after foliar spraying, Pinot noir; conditions: for Gain: cold stress -3 to -5° C. 12 hours after application
Procedure: (§1) Plants originating from different vine varieties: the Chardonnay, Pinot noir and Cabernet-Sauvignon varieties are used. Each sample, composed of 5 to 21 plants, is treated by foliar spraying at different vegetative stages on the BBCH scale with a mixture containing the xyloglucan elicitor, HEPTAMALOXYLOGLUCAN or XFGol in solution at variable doses; the spraying of 2.5 ml of solution per plant is carried out using a sprayer (deviation of +/−1%).
(§2) 12 hours after the application of the elicitor, the plants were exposed to cold stress at −3 to −5° C. After exposure to the cold, the plants are placed in a climatic chamber at 20° C. with a 12-hour day/night alternation. The appearance of the leaves is observed 24 hours and 72 hours after removal from the cold. The effects of the cold are evaluated by observing the foliar necroses induced by frost and the plants are kept for several months in order to monitor their subsequent development.
(§3) The results are expressed by the protection index IP: IP (%)=100−P; P, being the proportion of necrotized leaves.

kiwi plants = assay: Frost-resistance of kiwi plants after foliar spraying (death of buds); conditions: for Gain % / IP (protection index of kiwi buds; IP=100-P, P=proportion of dead buds): elicitor 500 nM
Procedure: The elicitor which is used is HEPTAMALOXYLOGLUCAN (or XFGol).
Before the cold stress, plants are treated or not by foliar spraying with a spray mixture containing HEPTAMALOXYLOGLUCAN.
After application of the spraying mixture, the plants were exposed to cold stress. In order to reproduce artificial conditions of cold stress, plants were placed in a climatic chamber.
The effects of cold are evaluated by observing the death of buds due to frost.
The results are expressed by the protection index IP: IP (%)=100-P; P, being the proportion of dead buds.
The results are also expressed in gain:
Increase of protection of kiwi plants elicited by the product PEL101GV (500 nM). IP corresponds to the protection index of kiwi buds, 28 days after the cold stress at −2,8° C. or −4° C. (IP=100−P; P=proportion of dead buds)

Cabernet-Sauvignon = assay: Frost-resistance of vine plants after foliar spraying, Cabernet-Sauvignon; conditions: for Gain: Cabernet Sauvignon, cold stress -3 to -5° C. 12 hours after application
Procedure: as §1, §2, §3

Chardonnay = assay: Frost-resistance of vine plants after foliar spraying, Chardonnay; conditions: for Gain: cold stress -3 to -5° C. 12 hours after application
Procedure: as §1, §2, §3

[1] = spray mixture containing 5 nM, compared within a range of 0.5 nM to 5000 nM
[2] = 28 days after the cold stress at -2.8° C.
[3] = 28 days after the cold stress at -4° C.

CC1OC(OC2C(OC3C(OCC4OC(OC(C(O)CO)C(O)C(O)CO)C(O)C(O)C4OC4OC(COC5OCC(O)C(O)C5O)C(O)C(O)C4O)OCC(O)C3O)OC(CO)C(O)C2O)C(O)C(O)C1O (stereo not drawn) [HEPTAMALOXYLOGLUCAN]
Gain (Pinot noir; elicitor 0.5 nM foliar spray): 0%
Gain (Pinot noir; elicitor 5 nM foliar spray): 34%
Gain (Pinot noir; elicitor 50 nM foliar spray): 0%
Gain (Pinot noir; elicitor 500 nM foliar spray): 27%
Gain (Pinot noir; elicitor 5000 nM foliar spray): 25%
protection against frost (Pinot noir; [1]): more efficient than the other doses
Gain % (kiwi plants; [2]): 27%
IP (protection index of kiwi buds; IP=100-P, P=proportion of dead buds) (kiwi plants; [2]): 81%
Gain % (kiwi plants; [3]): 87%
IP (protection index of kiwi buds; IP=100-P, P=proportion of dead buds) (kiwi plants; [3]): 56%
protection of the kiwi buds against frost (kiwi plants; treated versus control): better protection
Gain (Cabernet-Sauvignon; elicitor 5 nM foliar spray): 46%
Gain (Cabernet-Sauvignon; elicitor 50 nM foliar spray): 35%
Gain (Cabernet-Sauvignon; elicitor 500 nM foliar spray): 76%
protection against frost (Cabernet-Sauvignon; Cabernet sauvignon, spray mixture containing 500 nM, compared with the other doses): more efficient than the other doses
Gain (Chardonnay; elicitor 0.5 nM foliar spray): 28%
Gain (Chardonnay; elicitor 5 nM foliar spray): 42%
Gain (Chardonnay; elicitor 50 nM foliar spray): 9%
Gain (Chardonnay; elicitor 500 nM foliar spray): 0%
Gain (Chardonnay; elicitor 5000 nM foliar spray): 28%
protection against frost (Chardonnay; [1]): more efficient than the other doses
